In patent US12667559B2, “Dihydronaphthyridinone compound, and preparation method therefor and medical use thereof” (GENFLEET THERAPEUTICS (SHANGHAI) INC., priority 2020, dated 2026):

Columns and labels:
U937 cells = assay: Inhibitory activity against TNF-α induced programmed cell necrosis (U937 cells, CellTiter-Glo); assay type: cell-based, human; conditions: Homo sapiens, U-937, 48 h, U937 cells, human TNF-α and Q-VD-Oph induced necrosis, 48 hours, survival rate; read-out: U937 IC50
RIPK1 = molecular target: T1, RIPK1 (Homo sapiens, UniProt Q13546); assay: Inhibitory activity against RIPK1 enzyme (33P-ATP, MBP substrate); assay type: biochemical; conditions: 36 nM RIPK1, 0.33 mg/ml MBP, 155 μM 33P-ATP, 2 hours, room temperature
T1 construct: purchased Eurofins 16-022
T1 sequence (Q13546 1-671): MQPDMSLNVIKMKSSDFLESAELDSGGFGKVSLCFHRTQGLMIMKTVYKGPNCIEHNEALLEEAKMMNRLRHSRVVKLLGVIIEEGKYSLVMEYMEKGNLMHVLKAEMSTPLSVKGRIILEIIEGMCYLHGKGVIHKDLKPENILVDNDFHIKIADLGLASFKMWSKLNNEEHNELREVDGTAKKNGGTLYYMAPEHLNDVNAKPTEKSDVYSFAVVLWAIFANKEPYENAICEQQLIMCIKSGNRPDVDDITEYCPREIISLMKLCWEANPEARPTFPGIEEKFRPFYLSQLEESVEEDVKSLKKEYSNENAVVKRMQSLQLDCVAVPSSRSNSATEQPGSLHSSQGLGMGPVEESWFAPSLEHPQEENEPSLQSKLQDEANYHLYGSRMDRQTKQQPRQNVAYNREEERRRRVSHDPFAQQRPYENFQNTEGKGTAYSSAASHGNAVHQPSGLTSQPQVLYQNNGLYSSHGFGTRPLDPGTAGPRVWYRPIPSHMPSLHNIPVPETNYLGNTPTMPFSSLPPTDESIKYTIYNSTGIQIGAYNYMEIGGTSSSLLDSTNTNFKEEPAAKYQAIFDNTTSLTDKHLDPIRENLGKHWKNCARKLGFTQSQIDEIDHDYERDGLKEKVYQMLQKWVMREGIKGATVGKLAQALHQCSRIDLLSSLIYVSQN
Description: (§1) The U937 cell line used in the following test examples is from ATCC, with the number of CRL-1593.2, batch number of 63479999, and the culture medium of RPMI-1640+10% FBS. The L929 cell line used in the following test examples is from ATCC, with the number of CCL-1, batch number of 70001022, and the culture medium of MEM+10% FBS+1% PS. The reagents used, and suppliers and article numbers thereof are as follows: RPMI-1640, Gibco, 11875-093; FBS, Gibco, 10099-141; Trypsin-EDTA, Gibco, 25200-072; PS, Gibco, 15140-122; CellTiter Glo, Progema, G7573; DMSO, VWR AMRESCO, 0231-500ML; TNF-α protein (human, recombinant), Peprotech, 300-01A; Q-VD-Oph, MCE, HY-12305; V-shaped bottom plate, Corning, 3894; 384 well low flange white flat bottom polystyrene TC-treated microplates, Corning, 3570; RIPK1, Eurofins, 16-022; MOPS, BDH, 441644J; EDTA, Sigma, E5134; myelin basic protein, Sigma, M1891-25.00 MG; magnesium acetate, Merck, DU008026; ATP (non-radioactive label), Sigma, A-7699; ATP (radioactive label), Hartmann Analytic, DU008054; phosphoric acid, Metlab, DU003000; Z-VAD: Shanghai Twochem Co., Ltd., YA02401.
The compounds to be tested was dissolved in DMSO to prepare a 10 mM stock solution, which was diluted 3.16 times with DMSO into a series of concentration gradients, and then diluted 50 times with MOPS buffer solution (pH 7.0) to prepare a working solution, which were mixed well with 36 nM RIPK1 (final concentration), and 0.33 mg/ml substrate MBP. 10 mM magnesium ions and 155 μM phosphorous 33 isotope-labeled ATP were added to the reaction. The final concentration of DMSO was 2%. After 2 hours of reaction at room temperature, phosphoric acid was added to stop the reaction. The final reaction system was processed and then detected with a liquid scintillation counter.

L929 cells = assay: Inhibitory activity against TNF-α induced programmed necrosis of L929 cells (CellTiter-Glo); assay type: cell-based; conditions: Mus musculus, 30 ng/ml murine TNF-α and 15 μM Z-VAD, 6 hours, survival rate
Description: as §1
The compounds to be tested was dissolved in DMSO and prepared as a 10 mM stock solution, which was diluted 3.16 times with DMSO to form a series of concentration gradients, and then diluted 100 times with culture medium to make a working solution. 10,000 L929 cells/well were seeded on a 384-well white plate, and the corresponding concentration of compound was added to each well to mix with the cells uniformly. At the same time, 30 ng/ml murine TNF-α and 15 μM Z-VAD were added to induce programmed necrosis of the cells. The final concentration of DMSO was 0.2%, and the cells were placed in a 37° C., 5% CO2 incubator for further incubation for 6 hours. CellTiter-Glo reagent was used for detection. After the reaction was fully lysed, the chemiluminescence readings was detected by a microplate reader. The test results were calculated using the formula for survival rate: SR (%)=(RLU compound−RLU blank)/(RLU high control-RLU blank)×100%. The survival rate and the final concentration of the corresponding compound were plotted as a curve, and fitted using a four-parameter model to calculate the inhibitory IC50 of compounds on TNF-α-induced programmed cell necrosis.

| Structure (SMILES) | IC50 (RIPK1) | IC50 (U937 cells) | IC50 (L929 cells) |
| --- | --- | --- | --- |
| C[C@H](c1ccc(F)cc1)n1cc(N2CCc3ncc(-c4ccn5nc(N)nc5c4)cc3C2=O)cn1 (single isomer, unassigned) [Z74] | 193 nM | 3.8 nM | 2.3 nM |
| O=C(Nc1cn2nc(-c3cnc4c(c3)C(=O)N(Cc3ccccc3OC(F)(F)F)CC4)ccc2n1)C1CC1 [Z10, N-(6-(5-oxo-6-(2-(trifluoromethoxy)benzyl)-5,6,7,8-tetrahydro-1,6-naphthyridin-3-yl)imidazo[1,2-b]pyridazin-2-yl)cyclopropanecarboxamide] | 56 nM | 5.9 nM | 2.4 nM |
| Cn1cc(-c2ccc(F)cc2CN2CCc3ncc(-c4ccn5nc(N)nc5c4)cc3C2=O)cn1 [Z51, 3-(2-amino-[1,2,4]triazolo[1,5-a]pyridyl-7-yl)-6-(5-fluoro-2-(1-methyl-1H-pyrazol-4-yl)benzyl)-7,8-dihydro-1,6-naphthyridin-5(6H)-one] | 72 nM | 24 nM |  |

Molecules with a lower IC50 (RIPK1), results first:

| IC50 (RIPK1) | Structure (SMILES) | IC50 (U937 cells) | IC50 (L929 cells) |
| --- | --- | --- | --- |
| 50 nM | Cc1c(-c2ccc(F)cc2CN2CCc3ncc(-c4ccn5nc(N)nc5c4)cc3C2=O)cnn1C [Z82] | 23.4 nM |  |
| 37 nM | CC(=O)Nc1cn2nc(-c3cnc4c(c3)C(=O)N(Cc3cc(F)cc(F)c3OC3CCOCC3)CC4)ccc2n1 [Z2, N-(6-(6-(3,5-difluoro-2-((tetrahydro-2H-pyran-4-yl)oxy)benzyl)-5-oxo-5,6,7,8-tetrahydro-1,6-naphthyridin-3-yl)imidazo[1,2-b]pyridazin-2-yl)acetamide] | 0.103 nM | < 2.8 nM |
| 34 nM | C[C@H](c1cc(F)ccc1-c1cnn(C)c1)N1CCc2ncc(-c3ccn4nc(N)nc4c3)cc2C1=O (single isomer, unassigned) [Z85] | 4.3 nM | 13.4 nM |
| 33 nM | Nc1nc2cc(-c3cnc4c(c3)C(=O)N(Cc3cc(F)cc(F)c3OC3CC3)CC4)ccn2n1 [Z69] | 1.4 nM | 3.7 nM |
